Laboratory results reported in patent publication US12310365B2 (priority 2009, dated 2025).

Legend:
Format in all cases: in vivo
Pyricularia oryzae = assay: whole plant or invertebrate; conditions: topical, 168 h, read-out: Control value
[1] = test system: Pseudoperonospora cubensis; assay: Cucumber downy mildew preventive test; conditions: for pest or weed control at 20 ppm: treatment concentration 20 ppm
[2] = test system: Pseudoperonospora cubensis; assay: Cucumber downy mildew curative test; conditions: single ingredient; for pest or weed control at 20 ppm: treatment concentration 20 ppm
[3] = test system: Botrytis cinerea (Diethofencarb-resistant strain); assay: Tomato gray mold preventive test (Diethofencarb-resistant strain)
Sphaerotheca fuliginea [4] = assay: Cucumber powdery mildew preventive test; conditions: Podosphaera fuliginea, topical, 168 h; for pest or weed control at 10 ppm: treatment concentration 10 ppm; for pest or weed control at 20 ppm: treatment concentration 20 ppm
Sphaerotheca fuliginea [5] = assay: Cucumber powdery mildew curative test; conditions: Podosphaera fuliginea, topical, 168 h; for pest or weed control at 10 ppm: treatment concentration 10 ppm; for pest or weed control at 20 ppm: treatment concentration 20 ppm
[6] = Pseudoperonospora cubensis, topical, 168 h
[7] = Pseudoperonospora cubensis, topical, 168 h, treatment concentration 9.4 ppm
[8] = Botrytis cinerea, topical, 48 h, read-out: Control value
[9] = treatment concentration 4.4 ppm
[10] = Pseudoperonospora cubensis, topical, 168 h, treatment concentration 10 ppm
[11] = treatment concentration 55.3 ppm
[12] = treatment concentration 1.7 ppm
[13] = treatment concentration 160 ppm
[14] = treatment concentration 7.5 ppm

Molecule: Cc1ccc(C(=O)NC[C@@H](NC(=O)OCC(F)(F)F)C(C)(C)C)cc1 [Compound 2005, 2,2,2-Trifluoroethyl ((1S)-2,2-dimethyl-1-{[(4-methylbenzoyl)amino]methyl}-propyl)carbamate]
- pest or weed control at 5 ppm (Pyricularia oryzae): 67%

Molecule: COCC(=O)N(c1c(C)cccc1C)[C@H](C)C(=O)OC [Metalaxyl M]
- Control value ([1]; treatment concentration 10 ppm): 60
- Control value ([2]; treatment concentration 10 ppm): 83

Molecule: Maneb
- Control value ([3]; treatment concentration 177.5 ppm): 17

Molecule: COc1ccc(C(=CC(=O)N2CCOCC2)c2ccc(Cl)cc2)cc1OC [Dimethomorph]
- pest or weed control at 20 ppm [1, 6]: 60%
- pest or weed control at 20 ppm [2, 6]: 50%

Molecule: Cc1ccc(-c2c(Cl)nc(C#N)n2S(=O)(=O)N(C)C)cc1 [Cyazofamid]
- pest or weed control at 9.4 ppm [1, 7]: 40%
- pest or weed control at 9.4 ppm [2, 7]: 67%

Molecule: N#Cc1c[nH]cc1-c1cccc2c1OC(F)(F)O2 [Fludioxonil]
- pest or weed control at 20 ppm [3, 8]: 67%

Molecule: Iminoctadine trialbesilate
- Control value ([3]; treatment concentration 40 ppm): 67

Molecule: N#CC(CCc1ccc(Cl)cc1)(Cn1cncn1)c1ccccc1 (stereo not drawn) [Fenbuconazole]
- pest or weed control at 4.4 ppm (Sphaerotheca fuliginea [4]; [9]): 27%
- pest or weed control at 4.4 ppm (Sphaerotheca fuliginea [5]; [9]): 75%

Molecule: CC(C)OC(=O)N[C@H](C(=O)N[C@H](C)c1nc2ccc(F)cc2s1)C(C)C [Benthiavalicarb-isopropyl]
- pest or weed control at 10 ppm [1, 10]: 40%
- pest or weed control at 10 ppm [2, 10]: 67%

Molecule: CC(C)(C)C(=O)C(Oc1ccc(Cl)cc1)n1cncn1 (stereo not drawn) [Triadimefon]
- pest or weed control at 10 ppm (Sphaerotheca fuliginea [4]): 0%
- pest or weed control at 10 ppm (Sphaerotheca fuliginea [5]): 67%

Molecule: CCCOC/C(=N\c1ccc(Cl)cc1C(F)(F)F)n1ccnc1 [Triflumizole]
- pest or weed control at 6 ppm (Sphaerotheca fuliginea [4]; treatment concentration 6 ppm): 33%
- pest or weed control at 6 ppm (Sphaerotheca fuliginea [5]; treatment concentration 6 ppm): 67%

Molecule: [Cu+2].[OH-].[OH-] [cupric hydroxide]
- Control value [1, 11]: 40
- Control value [2, 11]: 50

Molecule: Cc1ccc(C(=O)NC[C@@H](NC(=O)OCC(F)(F)F)C(C)C)cc1 [Compound 2004, 2,2,2-Trifluoroethyl ((1S)-2-methyl-1-{[(4-methylbenzoyl)amino]methyl}-propyl)carbamate]
- pest or weed control at 5 ppm (Pyricularia oryzae): 67%

Molecule: Cc1ccc(C(=O)NC[C@@H](NC(=O)OCc2ccccc2)C(C)C)cc1 [Compound 2008, Benzyl ((1S)-2-methyl-1-{[(4-methylbenzoyl)amino]methyl}propyl)carbamate]
- pest or weed control at 5 ppm (Pyricularia oryzae): 33%

Molecule: CC1(C)COC(C)(CCCc2ccc(Cl)cc2)N1C(=O)n1ccnc1.CC1(C)COC(C)(CCCc2ccc(Cl)cc2)N1C(=O)n1ccnc1.O=C(O)/C=C/C(=O)O (stereo not drawn) [Oxpoconazole fumarate]
- Control value ([3]; treatment concentration 10 ppm): 0

Molecule: CC(C)(C)C(O)(CCc1ccc(Cl)cc1)Cn1cncn1 (stereo not drawn) [Tebuconazole]
- pest or weed control at 20 ppm (Sphaerotheca fuliginea [4]): 33%
- pest or weed control at 20 ppm (Sphaerotheca fuliginea [5]): 67%

Molecule: CC(C)OC(=O)N[C@H](CNC(=O)c1cc2ccccc2o1)C(C)C [Compound 2003, Isopropyl ((1S)-1-{[(1-benzofuran-2-ylcarbonyl)amino]methyl}-2-methyl-propyl)carbamate]
- pest or weed control at 5 ppm (Pyricularia oryzae): 50%

Molecule: Cc1ccc(C(=O)NC[C@@H](NC(=O)OC(C)C)C(C)C)cc1 [Compound 2001, Isopropyl ((1S)-2-methyl-1-{[(4-methylbenzoyl)amino]methyl}propyl)-carbamate]
- pest or weed control at 5 ppm (Pyricularia oryzae): 33%

Molecule: OC(c1ccc(Cl)cc1)(c1cncnc1)c1ccccc1Cl (stereo not drawn) [Fenarimol]
- pest or weed control at 4 ppm (Sphaerotheca fuliginea [4]; treatment concentration 4 ppm): 67%
- pest or weed control at 4 ppm (Sphaerotheca fuliginea [5]; treatment concentration 4 ppm): 78%

Molecule: Cc1ccc(C(=O)NC[C@H](C)NC(=O)OCC(F)(F)F)cc1 [Compound 2007, 2,2,2-Trifluoroethyl {(1S)-1-methyl-2-[(4-methylbenzoyl)amino]ethyl}-carbamate]
- pest or weed control at 5 ppm (Pyricularia oryzae): 67%

Molecule: O=C(Cc1ccccc1)N/C(=N\OCC1CC1)c1c(C(F)(F)F)ccc(F)c1F [Cyflufenamid]
- pest or weed control at 1.7 ppm (Sphaerotheca fuliginea [4]; [12]): 33%
- pest or weed control at 1.7 ppm (Sphaerotheca fuliginea [5]; [12]): 67%

Molecule: CC#Cc1cc(C)nc(Nc2ccccc2)n1 [Mepanipyrim]
- pest or weed control at 20 ppm (Sphaerotheca fuliginea [4]): 0%
- pest or weed control at 20 ppm (Sphaerotheca fuliginea [5]): 75%

Molecule: CCNc1nc(CC)c(C(=O)NC(C#N)c2cccs2)s1 (stereo not drawn) [Ethaboxam]
- Control value ([1]; treatment concentration 10 ppm): 20
- Control value ([2]; treatment concentration 10 ppm): 67

Molecule: COCC(=O)N(c1c(C)cccc1C)C(C)C(=O)OC (stereo not drawn) [Metalaxyl]
- pest or weed control at 10 ppm [1, 10]: 60%
- pest or weed control at 10 ppm [2, 10]: 92%

Molecule: O=C(Nc1ccccc1-c1ccc(Cl)cc1)c1cccnc1Cl [Boscalid]
- pest or weed control at 50 ppm [3, 8]: 17%

Molecule: CC1(C(=O)Nc2ccc(O)c(Cl)c2Cl)CCCCC1 [Fenhexamid]
- pest or weed control at 50 ppm [3, 8]: 50%

Molecule: Cc1ccc(C(=O)NC[C@@H](NC(=O)OC(C)C)C(C)(C)C)cc1 [Compound 2002, Isopropyl ((1S)-2,2-dimethyl-1-{[(4-methylbenzoyl)amino]methyl}propyl)-carbamate]
- pest or weed control at 5 ppm (Pyricularia oryzae): 33%

Molecule: COC(=O)NC(=S)Nc1ccccc1NC(=S)NC(=O)OC [Thiophanate-methyl]
- pest or weed control at 70 ppm [3, 8]: 43%

Molecule: O=C1C2CC=CCC2C(=O)N1SC(Cl)(Cl)Cl (stereo not drawn) [Captan]
- pest or weed control at 133.3 ppm [3, 8]: 33%

Molecule: CC(C)NC(=O)N1CC(=O)N(c2cc(Cl)cc(Cl)c2)C1=O [Iprodione]
- pest or weed control at 50 ppm [3, 8]: 67%

Molecule: Fosetyl-aluminium
- Control value [1, 13]: 60
- Control value [2, 13]: 67

Molecule: C[Si](C)(C)CC(O)(Cn1cncn1)c1ccc(F)cc1 (stereo not drawn) [Simeconazole]
- pest or weed control at 10 ppm (Sphaerotheca fuliginea [4]): 0%
- pest or weed control at 10 ppm [3, 8]: 33%
- pest or weed control at 10 ppm (Sphaerotheca fuliginea [5]): 33%

Molecule: Clc1ccc(CSC(Cn2cncn2)=Nc2ccc(Cl)cc2Cl)cc1 [Imibenconazole]
- pest or weed control at 15 ppm (Sphaerotheca fuliginea [4]; treatment concentration 15 ppm): 33%
- pest or weed control at 15 ppm (Sphaerotheca fuliginea [5]; treatment concentration 15 ppm): 75%

Molecule: Cc1ccc(C(=O)NC[C@@H](NC(=O)OC(C)C)C(F)(F)F)cc1 [Compound 2009, Isopropyl ((1R)-2,2,2-trifluoro-1-{[(4-methylbenzoyl)amino]methyl}ethyl)-carbamate]
- pest or weed control at 5 ppm (Pyricularia oryzae): 67%

Molecule: CCNC(=O)NC(=O)/C(C#N)=N/OC [Cymoxanil]
- pest or weed control at 20 ppm [1, 6]: 60%
- pest or weed control at 20 ppm [2, 6]: 67%

Molecule: C[C@@]1(c2ccc(Oc3ccccc3)cc2)OC(=O)N(Nc2ccccc2)C1=O (racemic) [Famoxadone]
- pest or weed control at 10 ppm [1, 10]: 0%
- pest or weed control at 10 ppm [2, 10]: 92%

Molecule: CCOc1ccc(NC(=O)OC(C)C)cc1OCC [Diethofencarb]
- pest or weed control at 12.5 ppm [3, 8]: 0%

Molecule: O=[N+]([O-])c1cc(C(F)(F)F)c(Cl)c([N+](=O)[O-])c1Nc1ncc(C(F)(F)F)cc1Cl [Fluazinam]
- pest or weed control at 20 ppm [3, 8]: 0%

Molecule: CC(C)[C@@H](CNC(=O)c1cc2ccccc2o1)NC(=O)OCC(F)(F)F [Compound 2006, 2,2,2-Trifluoroethyl ((1S)-1-{[(1-benzofuran-2-ylcarbonyl)amino]methyl}-2-methylpropyl)carbamate]
- pest or weed control at 5 ppm (Pyricularia oryzae): 67%

Molecule: CC12CC1(C)C(=O)N(c1cc(Cl)cc(Cl)c1)C2=O (stereo not drawn) [Procymidone]
- pest or weed control at 50 ppm [3, 8]: 17%

Molecule: Mancozeb
- Control value [1, 14]: 60
- Control value [2, 14]: 67

Molecule: CO/C=C(/C(=O)OC)c1ccccc1Oc1cc(Oc2ccccc2C#N)ncn1 [Azoxystrobin]
- Control value ([1]; treatment concentration 8 ppm): 60
- Control value ([2]; treatment concentration 8 ppm): 92

Molecule: CC(C)CC(C)c1sccc1NC(=O)c1cn(C)nc1C(F)(F)F (stereo not drawn) [Penthiopyrad]
- pest or weed control at 10 ppm [3, 8]: 33%

Molecule: CO/N=C(/C(=O)OC)c1ccccc1COc1ccccc1C [Kresoxim-methyl]
- pest or weed control at 20 ppm (Sphaerotheca fuliginea [4]): 17%
- pest or weed control at 20 ppm (Sphaerotheca fuliginea [5]): 67%

Molecule: CCCCC(O)(Cn1cncn1)c1ccc(Cl)cc1Cl (stereo not drawn) [Hexaconazole]
- pest or weed control at 2 ppm (Sphaerotheca fuliginea [4]; treatment concentration 2 ppm): 17%
- pest or weed control at 2 ppm (Sphaerotheca fuliginea [5]; treatment concentration 2 ppm): 75%
